The results in this text go back to paper PMC8348200, “Selective Antifungal Activity and Fungal Biofilm Inhibition of Tryptophan Center Symmetrical Short Peptide” (International Journal of Molecular Sciences, 2021).

Values after ≈ are worked out from the molar mass of the structure shown. Like-named read-outs stand apart in the source and are kept apart here. Bounds are passed on as bounds.

In experiment [1] the test system is C. albicans cgmcc 2.2086. Description: Cytoplasmic membrane depolarization assay (DiSC3-5). It is filed as cell-based, Candida albicans. The following applies: agents at their MICs, 1 h; 0.4 μM DiSC3-5. On the procedure:
To analyze membrane disturbances due to P19, melittin, fluconazole or amphotericin B-treated, cells (1 × 10^4 cells/mL) of C. albicans cgmcc 2.2086 were incubated with antimicrobial agents at their respective MICs for 1 h at room temperature; the cells were then harvested by centrifugation and resuspended in 1 mL PBS (pH 7.4). […] Changes in fluorescence were measured from 0 to 800 s with a F-4500 fluorescence spectrophotometer (Hitachi, Japan) at an excitation wavelength of 622 nm and an emission wavelength of 670 nm.

Experiment [2] relates to C. albicans cgmcc 2.2086. Description: Resistance development by sequential passaging at sub-MIC. It is filed as cell-based, Candida albicans. The following applies: 20-passage repeating treatment at sub-lethal concentration.
Description: Resistance development of C. albicans cgmcc 2.2086 against antifungals was explored using a sequential passaging method, described in our previous study [22]. Briefly, MIC testing was first conducted for P19, fluconazole and amphotericin B. After a 24 h incubation, fungal cells growing in a well with a half-MIC level were harvested and diluted to 0.5–1 × 10^4 CFU/mL using RPMI 1640 growth medium buffered with morpholine propane sulfonic acid (MOPS). The inoculum was subjected to subsequent passage MIC testing, and the process was repeated for 30 days. The fold change in MIC was plotted against the number of passages.
In experiment [3] the test system is C. parapsilosis cgmcc 2.3989. Put plainly: microbe, parasite or virus in culture. The format is cell-based. The following applies: RPMI 1640 buffered with MOPS, 28 °C 48 h, 0.5-128 μM, read-out: MICs, C. parapsilosis cgmcc 2.3989. On the procedure:
(§1) The peptide antimicrobial activity was determined according to the Clinical and Laboratory Standards Institute method, with modifications. Bacteria concentration was measured by ultraviolet spectrophotometer, and fungi concentration was confirmed by McMillan’s turbidimetric method, which compared the fungi solution with the standard McFarland tube in front of the horizontal line on the paper with the naked eye. Because the light has different refract in different liquids. The standard solution is composed of sulfuric acid and barium chloride, which is equivalent to 1*10^8 CFU fungi. After cultivation, the growth of fungi and bacteria was measured by TECAN automatic enzyme label instrument. Briefly, bacterial cells were cultured in MHB until logarithmic phase, yeast colonies cultured in Yeast Peptone Dextrose Agar (YPDA) were picked and diluted in RPMI 1640 growth medium buffered with morpholine propane sulfonic acid (MOPS), and then 50 μL of bacterial or fungi cell solution (0.5–1 × 10^4 CFU/mL) was added to each well of sterile 96-well plates. Each well contained 50 μL of AMPs dissolved in BSA; the final concentrations of the peptides ranged from 0.5 to 128 μM. The lowest concentration of peptide with no microbial growth being observed were measured after incubation at 37 °C for 24 h for bacteria or at 28 °C for 48 h for fungi. Broth with microbial cells and un-inoculated broth were used as positive control and negative controls, respectively.

Experiment [4] has as its system C. tropicalis cgmcc 2.1975. Description: microbe, parasite or virus in culture. It is filed as cell-based. The following applies: RPMI 1640 buffered with MOPS, 28 °C 48 h, 0.5-128 μM, read-out: MICs, C. tropicalis cgmcc 2.1975. As to the method:
as §1

A further experiment has as its system L. plantarum 7469. Put plainly: microbe, parasite or virus in culture. The format is cell-based. The following applies: 37 °C 24 h, peptides 0.5-128 μM, lowest concentration inhibiting 95% of growth, three independent experiments, read-out: MICs, L. plantarum 7469. As to the method:
as §1

For another experiment, the system named is E. coli UB1005. Put plainly: microbe, parasite or virus in culture. The following applies: Escherichia coli, UB1005; MHB, 37 °C 24 h, peptides 0.5-128 μM; lowest concentration inhibiting 95% of growth; three independent experiments; read-out: MICs, E. coli UB1005. The format is cell-based, Escherichia coli. As to the method:
as §1

Another experiment deals with E. coli 25922. Description: microbe, parasite or virus in culture. The following applies: Escherichia coli, 25922; MHB, 37 °C 24 h, peptides 0.5-128 μM; lowest concentration inhibiting 95% of growth; three independent experiments; read-out: MICs, E. coli 25922. The format is cell-based, Escherichia coli. On the procedure:
as §1

A further experiment relates to S. aureus 29213. Put plainly: microbe, parasite or virus in culture. The format is cell-based, Staphylococcus aureus. The following applies: MHB, 37 °C 24 h, peptides 0.5-128 μM, lowest concentration inhibiting 95% of growth, three independent experiments, read-out: MICs, S. aureus 29213. On the procedure:
as §1

The subject of experiment [5] is C. albicans cgmcc 2.2086. Put plainly: Propidium iodide influx, flow cytometry. It is filed as cell-based, Candida albicans. The following applies: 1× MIC, 1 h at 28 °C; 10 μg/mL PI. On the procedure: Cell membrane permeabilization after treatment with P19, melittin, fluconazole or amphotericin B were also detected via the propidium iodide influx assay. In brief, C. albicans cgmcc 2.2086 cells (1 × 10^4 cells/mL) were treated with antifungal agents for 1 h at 28 °C, then washed, harvested by centrifugation and resuspended in PBS. The cells were treated with 10 μg/mL propidium iodide and incubated for 30 min at room temperature. The uptake of propidium iodide into these cells was analyzed with a FACS flow cytometer (Becton–Dickinson, San Jose, CA) with a laser excitation wavelength of 488 nm. The flow cytometry results can be interpreted as follows. Region Q1 was identified as a living cell region; it represents cells treated with PBS. Q2 region represents the dead cell region. Ignored the surrounding adherent scattered points, the most concentrated scattered points represented the largest cell density. The areas where cells were concentrated represent the state of cells as live or die.
On the technique in general: In flow cytometry, cells or beads pass a laser one at a time.

Where [6] appears, read: Lodderomyces parapsilosis, CGMCC2.
Where [7] appears, read: Lactiplantibacillus plantarum, 7469.

Take `C[C@@H]1[C@H](O)[C@@H](C)/C=C/C=C/C=C/C=C/C=C/C=C/C=C/[C@H](O[C@@H]2O[C@H](C)[C@@H](O)[C@H](N)[C@@H]2O)C[C@@H]2O[C@](O)(C[C@@H](O)C[C@@H](O)[C@H](O)CC[C@@H](O)C[C@@H](O)CC(=O)O[C@H]1C)C[C@H](O)[C@H]2C(=O)O` [Amphotericin B, reference compound]: the “membrane depolarization (DiSC3-5 fluorescence intensity)” value in the experiment on C. albicans cgmcc 2.2086 [1] is on record as “minor change of membrane depolarization”. Further, the “increase in MIC value compared with the first passage” value in the experiment with C. albicans cgmcc 2.2086 [2] came out at 1024 fold. The MIC is 2 µM (≈ 1.85 µg/mL) in experiment [3] (setting [6]); 1 µM (≈ 0.924 µg/mL) in [4] (Candida tropicalis, CGMCC2); over 128 µM with L. plantarum 7469 (setting [7]); over 128 µM with E. coli UB1005; over 128 µM with E. coli 25922; over 128 µM in the experiment on S. aureus 29213 (Staphylococcus aureus, 29213).
As to `OC(Cn1cncn1)(Cn1cncn1)c1ccc(F)cc1F` [Fluconazole, reference compound], in the experiment on C. albicans cgmcc 2.2086 [1], the “membrane depolarization (DiSC3-5 fluorescence intensity)” value was “minor change of membrane depolarization”. The “increase in MIC value compared with the first passage” value in the experiment with C. albicans cgmcc 2.2086 [2] amounted to 1024 fold. For the same compound, the MIC in experiment [3] (setting [6]) was 4 µM (≈ 1.23 µg/mL); in [4] (Candida tropicalis, CGMCC2), 4 µM (≈ 1.23 µg/mL); in the experiment on L. plantarum 7469 (setting [7]), over 128 µM; in the experiment on E. coli UB1005, over 128 µM; in the experiment on E. coli 25922, over 128 µM; in the experiment on S. aureus 29213 (Staphylococcus aureus, 29213), over 128 µM.
In the case of `CC[C@H](C)[C@H](NC(=O)CN)C(=O)NCC(=O)N[C@@H](C)C(=O)N[C@H](C(=O)N[C@@H](CC(C)C)C(=O)N[C@@H](CCCCN)C(=O)N[C@H](C(=O)N[C@@H](CC(C)C)C(=O)N[C@H](C(=O)N[C@H](C(=O)NCC(=O)N[C@@H](CC(C)C)C(=O)N1CCC[C@H]1C(=O)N[C@@H](C)C(=O)N[C@@H](CC(C)C)C(=O)N[C@H](C(=O)N[C@@H](CO)C(=O)N[C@@H](Cc1c[nH]c2ccccc12)C(=O)N[C@H](C(=O)N[C@@H](CCCCN)C(=O)N[C@@H](CCCNC(=N)N)C(=O)N[C@@H](CCCCN)C(=O)N[C@@H](CCCNC(=N)N)C(=O)N[C@@H](CCC(N)=O)C(=O)N[C@@H](CCC(N)=O)C(N)=O)[C@@H](C)CC)[C@@H](C)CC)[C@@H](C)O)[C@@H](C)O)C(C)C)C(C)C` [Melittin, reference compound], the “increase of PI fluorescent signal” value in the experiment with C. albicans cgmcc 2.2086 [5] was “more than 90%”. Besides, the MIC in experiment [3] is listed as 2 µM (≈ 5.69 µg/mL); in [4], 2 µM (≈ 5.69 µg/mL); in the experiment on L. plantarum 7469, over 128 µM; in the experiment on S. aureus 29213, 2 µM (≈ 5.69 µg/mL).
